{"source": "patent US20100092456A1", "about": "“METHODS OF TREATMENT” (priority 2006, published 2010)", "key": {"HeLa cells": {"test_system": "HeLa cells", "test": "Apoptosis of HeLa cells by nuclear morphology", "type": "cell-based", "conditions": "600 microMolar, 24 hours", "procedure": "HeLa cell were transiently transfected with expression plasmids encoding for the listed proteins. Cell were then treated with 600 microMolar H2O2 for 24 hours. All cells were collected and examined for apoptosis (Example 5).\nThe inventors have shown that type I PIP kinase protects cells from ROS induced apoptosis. HeLa cells were transiently transfected with expression plasmids encoding for the listed proteins. Cells were then treated with 600 microMolar H2O2 for 24 hours. All cells were collected and examined for apoptosis. Apoptosis was determined by examining nuclear morphology of green cells (GFP Histone) after staining with a nuclear stain. Cells with fragmented nuclei were scored positive for apoptosis. […] Ectopic expression of PIP 5-K protects HeLa cells from apoptosis after H2O2 treatment. Results are in FIG. 11."}, "[1]": {"test_system": "nuclear PtdIns4P and PtdIns5P in differentiated MEL cells", "test": "Mass assay of nuclear PtdIns4P and PtdIns5P in differentiated MEL cells", "type": "cell-based, Murine", "conditions": "NAC 5 mM or BSO 100 μM for 4 hours, H2O2 500 μM for 15 minutes, vs control-treated cells", "procedure": "B) Differentiated MEL cells were treated with NAC (5 mM) or BSO (100 μM), each for 4 hours, or H2O2 (500 μM) for 15 minutes prior to the isolation of intact nuclei. A mass assay was used to determine the levels of PtdIns4P and PtdIns5P. The results are expressed as % of control-treated differentiated MEL cells and are calculated from 3 independent experiments.\nMEL, HEK 293 and HT1080 cells were maintained in routine culture using 10% FCS in DMEM. When required, differentiated MEL cells were prepared by the addition of 1.5% DMSO to the culture medium for a period of 4 days. MEL cells were transfected using Effectene (Qiagen), HEK 293 cells with calcium phosphate and HT1080 with LT1 (Mirus corporation). The following plasmids were used: pEGFP, pCDNA3 (both from Clontech), pCDNA3-Flag-MKK6+ and pCDNA3-Flag-MKK6-(from Dr. M. Schmidt, The Netherlands Cancer Institute), pSuper (from Dr. R. Agami, The Netherlands Cancer Institute), pCDNA3-EGFP-IpgD/IpgE, pCDNA3-EGFP-PIP kinase typeIIβ, and RNAi for type II β PIP kinase (termed pSuper-IIβRNAi). The targeting sequence for the latter was […]. Irradiation of the cells with 254 nm UV-C light (0-200 J/m) or gamma rays (0-40 Gy, from a Cesium 137 source) was performed using 6-well or 10 cm plastic petri dishes with a depth of medium covering the cells not exceeding 3-4 mm. Thereafter, the cells were returned to normal culture conditions for 30 minutes before subcellular fractionation was started. To determine long terms effects of UV and gamma irradiation the cells were returned to normal culture conditions for up to 48 hours.\nMEL cells were washed, twice in ice cold PBS before their fractionation using a detergent-free hypotonic buffer. This method yields a mixed cytosol and membrane fraction and intact nuclei after separation using a sucrose cushion. MEL cell nuclei were fractionated into nucleoplasm and the CEF using modifications of a previously published method. Briefly, intact MEL cell nuclei were resuspended in ice cold hypotonic buffer (3 mM EDTA, 0.2 mM EGTA and 1 mM DTT pH 7.85, with protease inhibitors) followed by forced passage (12 times) through a 25 gauge needle. After centrifugation (1700 g) the supernatant (the nucleoplasm) was saved. The pellet (CEF) was washed twice before resuspending by sonication in 10 mM TrisHCl, 10% sucrose, 10 mM MgCl2 pH 7.4, with protease inhibitors. The protein content of all fractions was determined using the Bradford reagent (BioRad). PtdIns4P and PtdIns5P were measured using in vitro mass assays employing recombinant type I and type II PIP kinases, respectively. The product PtdIns(4,5)P2 was separated by TLC. The amount of radioactivity found in PtdIns(4,5)P2 was proportional to the amount of PtdInsP isomer in the neomycin affinity-purified lipid extract.\nHowever, no studies have determined a role for nuclear phosphoinositides or defined downstream protein targets mediating phosphoinositide-stress activated pathways. To study changes in nuclear phosphoinositides in response to cellular stress, we used Murine erythroleukaemia (MEL) cells as a model system because preparations of nuclei from these cells have been proven to be of high purity. To visualise changes in phosphoinositides, various independent methods were used. The mass level of both PtdIns4P and PtdIns5P were measured using an assay that relies on the differential in vitro specificities of type I and type II PIP kinases. […] Gamma irradiation (10 Gy) led to a small (approximately 20%) decrease in the PtdIns4P level but no detectable change in the level of PtdIns5P in whole nuclei (FIG. 1a). To determine if nuclear PtdInsPs were regulated by oxidative stress we treated differentiated MEL cells with H2O2, BSO (L-buthionine[S,R]-sulphoximine, a glutamyl-cysteine synthetase inhibitor, which increases intracellular reactive oxygen species (ROS)) or NAC. (N-acetyl-cysteine, which increases cellular glutathione levels and cell' capability to deal with ROS). […]"}}}
{"compound": "OO", "note": "[H2O2]", "values": [{"measurement": "apoptosis (fragmented nuclei)", "setting": "HeLa cells", "value": "induces apoptosis"}, {"measurement": "level of nuclear PtdIns4P", "setting": "[1]", "value": "increased"}, {"measurement": "level of nuclear PtdIns5P", "setting": "[1]", "value": "increased"}]}
